Type in all cases: cell-based
The target in test [1] is T1, CFTR-G178R (Homo sapiens, UniProt P13569, G178R).
T1 construct: expressed in transfected cells
The test can be described thus: YFP-halide influx assay for the CFTR-G178R. From the text: (§1) The YFP halide influx assay measured the functionality of the cystic fibrosis Transmembrane Conductance regulator (CFTR) channels. The assay was used to evaluate the capacity of compounds to increase the channel opening of existing mutant CFTR channels in the membrane. It makes use of the observation that the yellow fluorescent protein (YFP) variant YFP H148Q, I152L, F47L has its fluorescence substantially quenched by halide ions like Cl^− and I^− (Galietta, L. J. V., Haggie, P. M., Verkman, A. S., 2001. Green fluorescent protein-based halide indicators with improved chloride and iodide affinities. FEBS Lett. 499, 220-224. doi:10.1016/S0014-5793(01)02561-3).
(§2) For this purpose, HEK293-cells were seeded in 96 well plates. During seeding, the cells were reverse-transfected with plasmid vectors that direct the expression of the CFTR G551D mutant and of the YFP reporter. Cells were incubated at 37° C., 5% CO2 for 24 hours so as to allow for sufficient expression of the CFTR protein.
(§3) The I^−-induced quenching of fluorescence was recorded immediately after injection of I^− for 7 seconds. The capacity of a compound to increase the channel opening was directly correlated with the decrease in fluorescence, and was expressed as (1−(fluorescence after 7 seconds (F)/fluorescence before injection (F0))) and an EC50 was derived from a (1−F/F0) vs compound concentration plot.
(§4) Similar YHA assays were developed for other channel gating defective or channel conductance defective CFTR mutants to determine effect of compound on channel activity. Examples of mutants are G178R, G1349D, S549N, R117H, R334W. This assay is also used for additional class I CFTR mutants, including G542X, W1282X; class II mutants including N1303K, and for class III mutants including S1251N; or wild-type CFTR.

Test [2] concerns the target T2, CFTR-R117H (Homo sapiens, UniProt P13569, R117H).
T2 construct: expressed in transfected cells
The test can be described thus: YFP-halide influx assay for the CFTR-R117H.
Description: as §1, §2, §3, §4

For test [3], the target named is T3, CFTR G551D mutant (Homo sapiens, UniProt P13569, G551D).
T3 construct: expressed in transfected cells; host or cells: HEK293 cells, reverse transfection with plasmids
T3 sequence (P13569 whole entry G551D): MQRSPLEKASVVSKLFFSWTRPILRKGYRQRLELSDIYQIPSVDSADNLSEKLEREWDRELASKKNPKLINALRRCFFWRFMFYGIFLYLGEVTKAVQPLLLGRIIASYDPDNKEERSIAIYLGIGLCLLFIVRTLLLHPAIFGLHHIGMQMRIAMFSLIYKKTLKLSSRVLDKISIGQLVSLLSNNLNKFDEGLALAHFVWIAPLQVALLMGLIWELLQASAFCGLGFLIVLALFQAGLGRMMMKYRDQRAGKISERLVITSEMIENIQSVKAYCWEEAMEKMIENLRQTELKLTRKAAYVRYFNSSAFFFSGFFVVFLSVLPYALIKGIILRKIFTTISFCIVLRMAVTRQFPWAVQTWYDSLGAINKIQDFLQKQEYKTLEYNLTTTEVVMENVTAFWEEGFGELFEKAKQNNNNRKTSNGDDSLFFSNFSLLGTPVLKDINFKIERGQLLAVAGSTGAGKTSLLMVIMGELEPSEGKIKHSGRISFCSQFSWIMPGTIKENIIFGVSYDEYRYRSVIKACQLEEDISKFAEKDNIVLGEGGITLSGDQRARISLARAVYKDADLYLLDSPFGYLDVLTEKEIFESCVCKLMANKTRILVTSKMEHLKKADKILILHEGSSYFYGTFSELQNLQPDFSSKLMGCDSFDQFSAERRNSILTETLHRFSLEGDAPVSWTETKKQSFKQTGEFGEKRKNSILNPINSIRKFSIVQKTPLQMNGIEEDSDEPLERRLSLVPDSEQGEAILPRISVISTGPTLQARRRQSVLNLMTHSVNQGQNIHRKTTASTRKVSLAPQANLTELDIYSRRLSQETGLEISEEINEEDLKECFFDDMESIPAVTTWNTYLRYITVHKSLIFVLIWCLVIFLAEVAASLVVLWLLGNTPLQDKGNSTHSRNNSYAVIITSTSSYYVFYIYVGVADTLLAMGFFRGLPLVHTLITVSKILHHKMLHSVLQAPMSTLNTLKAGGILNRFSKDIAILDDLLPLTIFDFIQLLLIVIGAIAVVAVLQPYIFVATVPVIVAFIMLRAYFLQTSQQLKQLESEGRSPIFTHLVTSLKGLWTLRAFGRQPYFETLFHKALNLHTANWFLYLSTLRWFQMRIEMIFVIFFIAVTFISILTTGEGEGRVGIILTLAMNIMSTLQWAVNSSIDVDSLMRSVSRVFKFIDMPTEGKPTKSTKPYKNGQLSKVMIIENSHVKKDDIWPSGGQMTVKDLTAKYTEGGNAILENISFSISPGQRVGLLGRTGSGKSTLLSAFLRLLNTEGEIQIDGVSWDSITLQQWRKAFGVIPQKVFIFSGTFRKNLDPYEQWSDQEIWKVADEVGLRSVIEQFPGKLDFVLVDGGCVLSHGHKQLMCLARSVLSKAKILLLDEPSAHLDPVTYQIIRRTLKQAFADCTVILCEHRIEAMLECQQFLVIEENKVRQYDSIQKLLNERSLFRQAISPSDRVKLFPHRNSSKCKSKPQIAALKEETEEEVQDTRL
As to the kind of experiment: YFP-halide influx assay for the CFTR-G551D mutation (HEK293 cells). Conditions: forskolin 10.67 μM. In outline:
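Channel opening read as I⁻-driven quenching of a YFP H148Q/I152L/F47L reporter over 7 s post-injection, expressed as 1−F/F0 and fitted against concentration for EC50. Cells were HEK293 co-transfected at seeding with G551D CFTR plus reporter, then grown 24 h at 37 °C, 5% CO2.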

In test [4] the target is T4, CFTR-G1349D (Homo sapiens, UniProt P13569, G1349D).
T4 construct: expressed in transfected cells
T4 sequence (P13569 whole entry G1349D): as the sequence (P13569 whole entry G551D) above, with D551G, G1349D counted along it
The test can be described thus: YFP-halide influx assay for the CFTR-G1349D.
Description: as §1, §2, §3, §4

In test [5] the target is T5, CFTR-S549N (Homo sapiens, UniProt P13569, S549N).
T5 construct: expressed in transfected cells
T5 sequence (P13569 whole entry S549N): as the sequence (P13569 whole entry G551D) above, with S549N, D551G counted along it
The test can be described thus: YFP-halide influx assay for the CFTR-S549N. Details: % Activation: concentration or dose not given beside the values.
Description: as §1, §2, §3, §4

For test [6], the target named is T6, CFTR ΔF508 mutant (Homo sapiens, UniProt P13569, DEL508-508).
T6 construct: expressed in transfected cells; host or cells: CFBE41o- cells, adenoviral transduction
T6 sequence (P13569 with tags, fused parts or gaps DEL508-508): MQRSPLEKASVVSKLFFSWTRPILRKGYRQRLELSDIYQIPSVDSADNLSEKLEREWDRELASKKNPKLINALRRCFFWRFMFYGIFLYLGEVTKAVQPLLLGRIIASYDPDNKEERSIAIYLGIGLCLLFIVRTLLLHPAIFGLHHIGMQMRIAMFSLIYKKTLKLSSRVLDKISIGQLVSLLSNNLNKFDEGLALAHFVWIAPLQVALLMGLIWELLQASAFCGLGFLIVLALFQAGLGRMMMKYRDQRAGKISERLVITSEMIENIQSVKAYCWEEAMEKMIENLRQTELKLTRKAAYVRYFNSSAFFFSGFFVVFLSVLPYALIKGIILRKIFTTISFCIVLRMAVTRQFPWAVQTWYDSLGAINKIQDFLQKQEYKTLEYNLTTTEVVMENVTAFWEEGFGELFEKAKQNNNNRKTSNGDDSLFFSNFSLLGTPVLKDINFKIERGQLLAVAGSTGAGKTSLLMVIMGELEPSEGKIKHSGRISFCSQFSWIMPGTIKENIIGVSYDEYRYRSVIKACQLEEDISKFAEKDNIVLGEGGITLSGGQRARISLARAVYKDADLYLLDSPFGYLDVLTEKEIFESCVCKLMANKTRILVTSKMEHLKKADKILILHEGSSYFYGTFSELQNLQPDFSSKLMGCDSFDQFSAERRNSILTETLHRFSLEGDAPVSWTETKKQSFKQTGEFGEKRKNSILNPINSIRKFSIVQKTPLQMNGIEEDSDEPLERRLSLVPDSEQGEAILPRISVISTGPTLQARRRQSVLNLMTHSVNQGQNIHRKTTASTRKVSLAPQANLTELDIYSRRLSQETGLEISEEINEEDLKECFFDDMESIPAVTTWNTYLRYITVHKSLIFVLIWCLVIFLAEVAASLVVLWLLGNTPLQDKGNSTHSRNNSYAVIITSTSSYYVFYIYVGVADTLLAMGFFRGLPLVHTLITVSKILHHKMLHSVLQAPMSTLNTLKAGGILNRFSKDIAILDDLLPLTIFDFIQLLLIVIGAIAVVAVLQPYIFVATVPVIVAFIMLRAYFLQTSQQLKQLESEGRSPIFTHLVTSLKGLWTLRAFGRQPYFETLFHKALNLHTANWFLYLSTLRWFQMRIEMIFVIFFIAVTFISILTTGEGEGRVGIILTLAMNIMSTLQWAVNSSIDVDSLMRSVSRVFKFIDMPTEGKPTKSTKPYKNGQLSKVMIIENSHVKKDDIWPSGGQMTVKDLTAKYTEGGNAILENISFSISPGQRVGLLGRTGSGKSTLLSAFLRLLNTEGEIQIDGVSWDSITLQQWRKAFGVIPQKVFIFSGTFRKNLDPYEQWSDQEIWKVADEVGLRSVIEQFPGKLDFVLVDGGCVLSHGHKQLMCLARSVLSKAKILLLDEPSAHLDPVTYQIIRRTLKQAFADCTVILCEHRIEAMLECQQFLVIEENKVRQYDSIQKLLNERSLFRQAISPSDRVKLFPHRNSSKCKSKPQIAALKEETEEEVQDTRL
The test can be described thus: YFP-halide influx assay for the CFTR-ΔF508 mutation (CFBE41o- cells). To be noted: forskolin 10.67 μM; for EC50: from (1−F/F0) vs concentration plot. In outline: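 EC50 derived from plotting 1−F/F0 (fluorescence 36 s after iodide injection over pre-injection value) against compound concentration. Cells: CFBE41o- transduced with ΔF508-CFTR and YFP quench reporter, corrected 24 h at 27° C or by a CFTR modulator at 37° C.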

T2 sequence (P13569 whole entry R117H): as the sequence (P13569 whole entry G551D) above, with R117H, D551G counted along it
T1 sequence (P13569 whole entry G178R): as the sequence (P13569 whole entry G551D) above, with G178R, D551G counted along it

As for `Nc1cc(S(=O)(=O)c2ccc(OC(F)(F)F)cc2)cnc1C(=O)Nc1cc[nH]n1` [Compound 291, 3-amino-N-(1H-pyrazol-3-yl)-5-{[4-(trifluoromethoxy)phenyl]sulfonyl}pyridine-2-carboxamide], the “% Activation” value in test [1] turned out to be 79.3%; in test [2], 74.2%; in test [3] it was 44.7%; in test [4], 79.8%; in test [5], 75.6%; in test [6] it was 98.2%. The EC50 (as a rule, the concentration needed to bring the measured effect to its halfway point) in test [1] is 109 nM; in test [2] it was 155 nM; in test [3], 242 nM; in test [4], 149 nM; in test [5], 92.1 nM; in test [6], 5.5 nM.
Regarding `Nc1cc(S(=O)(=O)c2ccc(C(F)(F)F)cc2)cnc1C(=O)N1CC(OCC(F)F)C1` [Compound 231, (3-amino-5-{[4-(trifluoromethyl)phenyl]sulfonyl}pyridin-2-yl)[3-(2,2-difluoroethoxy)azetidin-1-yl]methanone], the “% Activation” value in test [1] is 98.4%; in test [2] it was 91.3%; in test [3], 59.2%; in test [4], 83.9%; in test [5] it was 88.2%; in test [6], 103.3%. For the same compound, the EC50 in test [1] was 305 nM; in test [2], 442 nM; in test [3], 450 nM; in test [4] it was 129 nM; in test [5] it was 256 nM; in test [6], 52.3 nM.
On to `Nc1cc(S(=O)(=O)c2ccc(C(F)(F)F)cc2)cnc1C(=O)NCC(F)(F)CO` [Compound 241, 3-amino-N-(2,2-difluoro-3-hydroxypropyl)-5-{[4-(trifluoromethyl)phenyl]sulfonyl}pyridine-2-carboxamide], for which the “% Activation” value in test [1] stood at 84.5%; in test [2], 103.0%; in test [3], 65.9%; in test [4], 71.0%; in test [5], 90.7%; in test [6], 117.0%. The half-maximal effective concentration (EC50) in test [1] is 502 nM; in test [2], 608 nM; in test [3], 675 nM; in test [4], 1110 nM; in test [5], 691 nM; in test [6] it was 11.6 nM.
`Nc1cc(S(=O)(=O)c2ccc(F)cc2)c(-c2ccc(F)cc2)nc1C(=O)NC[C@@H](O)C(F)(F)F` [Compound 259, 3-amino-6-(4-fluorophenyl)-5-[(4-fluorophenyl)sulfonyl]-N-[(2R)-3,3,3-trifluoro-2-hydroxypropyl]pyridine-2-carboxamide]: the “% Activation” value turned out to be 97.2% in test [1]; 126.0% in test [2]; 92.6% in test [3]; 91.0% in test [4]; 105.0% in test [5]; 102.5% in test [6]. In addition, the EC50 in test [1] is 149 nM; in test [2], 225 nM; in test [3] it was 1120 nM; in test [4], 173 nM; in test [5] it was 74.4 nM; in test [6] it was 4.3 nM.
For `C[C@H](O)CNC(=O)c1ncc(S(=O)(=O)c2ccccc2OC(F)(F)F)cc1N` [Compound 82, 3-amino-N-[(2S)-2-hydroxypropyl]-5-{[2-(trifluoromethoxy)phenyl]sulfonyl}pyridine-2-carboxamide], the “% Activation” value in test [1] came to 106.7%; in test [2] it was 128.3%; in test [3], 89.9%; in test [4], 92.74%; in test [5], 106.9%; in test [6], 106.0%. Besides, the EC50 worked out at 84.7 nM in test [1]; 1050 nM in test [2]; 795 nM in test [3]; 102 nM in test [4]; 122 nM in test [5]; 2.7 nM in test [6].
`Nc1cc(S(=O)(=O)c2ccc(OC(F)(F)F)cc2)cnc1C(=O)N[C@@H]1COC[C@H]1O` (racemic) [Compound 74, rac-3-amino-N-[(3R,4S)-4-hydroxytetrahydrofuran-3-yl]-5-{[4-(trifluoromethoxy)phenyl]sulfonyl}pyridine-2-carboxamide]: the “% Activation” value in test [1] is on record as 84.3%; in test [2] it was 100.0%; in test [3] it was 65.0%; in test [4], 86.8%; in test [5], 91.4%; in test [6], 110.0%. The 50% effective concentration (EC50) is 348 nM in test [1]; 866 nM in test [2]; 839 nM in test [3]; 511 nM in test [4]; 567 nM in test [5]; 17.2 nM in test [6].
In the case of `Nc1cc(S(=O)(=O)c2ccccc2OC(F)(F)F)cnc1C(=O)NCCO` [Compound 75, 3-amino-N-(2-hydroxyethyl)-5-{[2-(trifluoromethoxy)phenyl]sulfonyl}pyridine-2-carboxamide], the “% Activation” value in test [1] worked out at 94.3%; in test [2], 98.4%; in test [3], 68.5%; in test [4] it was 98.7%; in test [6] it was 121.0%. The EC50 in test [1] was 323 nM; in test [2], 472 nM; in test [3] it was 1510 nM; in test [4], 284 nM; in test [5] it was 251 nM; in test [6], 7.6 nM.
Take `CC1(O)CN(C(=O)c2ncc(S(=O)(=O)c3ccc(C(F)(F)F)cc3)cc2N)C1` [Compound 91, (3-amino-5-{[4-(trifluoromethyl)phenyl]sulfonyl}pyridin-2-yl) (3-hydroxy-3-methylazetidin-1-yl)methanone]: the “% Activation” value in test [2] is given as 89.6%; in test [3] it was 56.1%; in test [4] it was 76.6%; in test [6], 97.2%. The half-maximal effective concentration (EC50) was 326 nM in test [2], 810 nM in test [3], 738 nM in test [4] and 11.5 nM in test [6].
Turning to `Nc1cc(S(=O)(=O)c2ccc(C(F)(F)F)cc2)cnc1C(=O)NC[C@@H](O)C(F)(F)F` [Compound 63, 3-amino-N-[(2R)-3,3,3-trifluoro-2-hydroxypropyl]-5-{[4-(trifluoromethyl)phenyl]sulfonyl}pyridine-2-carboxamide], the “% Activation” value in test [2] came to 89.3%; in test [3], 60.8%; in test [4] it was 82.8%; in test [6] it was 102.0%. The half-maximal effective concentration (EC50) in test [2] is 152 nM; in test [3], 262 nM; in test [4] it was 256 nM; in test [6], 3.1 nM.
On to `CCC1(F)CN(C(=O)c2ncc(S(=O)(=O)c3ccc(OC(F)(F)F)cc3)cc2N)C1` [Compound 130, (3-amino-5-{[4-(trifluoromethoxy)phenyl]sulfonyl}pyridin-2-yl)(3-ethyl-3-fluoroazetidin-1-yl)methanone], for which the “% Activation” value in test [2] was found to be 77.6%; in test [3], 78.3%; in test [4], 55.4%; in test [6], 93.9%. For the same compound, the concentration for a half-maximal effect (EC50) turned out to be 580 nM in test [2], 674 nM in test [3], 703 nM in test [4] and 102 nM in test [6].
As for `CCOCC1(CNC(=O)c2ncc(S(=O)(=O)c3ccc(OC(F)(F)F)cc3)cc2N)CCC1` [Compound 118, 3-amino-N-{[1-(ethoxymethyl)cyclobutyl]methyl}-5-{[4-(trifluoromethoxy)phenyl]sulfonyl}pyridine-2-carboxamide], the “% Activation” value in test [2] stood at 90.7%; in test [3] it was 49.5%; in test [4] it was 99.5%; in test [6], 93.2%. For the same compound, the 50% effective concentration (EC50) in test [2] worked out at 621 nM; in test [3] it was 419 nM; in test [4], 770 nM; in test [6], 208 nM.

The values above are taken from US10047051B2, “Substituted pyridines and method of use” (AbbVie S.á{acute over (.)}r.l., priority 2015, dated 2018).
